“And” between values parts separate entries of the source, which are not always exact repeats. Equal values may be shown once.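 Method: 48-hour compound exposure of cells in 96-well plates, five concentrations, linear interpolation of endpoints. At the GI50, growth is halved. The concentration for full growth arrest is given as TGI.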
How the values were obtained:
Experiment in all cases: NCI anticancer screen, dose series, 48 h
[1] = tested on: MDA-MB-435
[2] = tested on: SW-620 colon
[3] = tested on: OVCAR-4 ovarian
[4] = tested on: PC-3 prostate
[5] = tested on: SNB-75 CNS
[6] = tested on: OVCAR-5 ovarian
[7] = tested on: SNB-19 CNS
[8] = tested on: UACC-62 melanoma
[9] = tested on: A498 renal
[10] = tested on: NCI-H23 lung

Row | SMILES | GI50 [1] [nM] | TGI [1] [µM] | GI50 [2] [nM] | TGI [2] | GI50 [3] [nM] | TGI [3] | GI50 [4] [nM] | TGI [4] | GI50 [5] | TGI [5] | GI50 [6] [nM] | TGI [6] | GI50 [7] [nM] | TGI [7] | GI50 [8] [nM] | TGI [8] | GI50 [9] [nM] | TGI [9] | GI50 [10] [nM] | TGI [10]
1 | CC(C)(C)c1cc(/C=N/NC(=O)c2ccccc2NC(=O)c2cccs2)c(O)c(C(C)(C)C)c1 | 2460 | 77.7 | 1380 | 17.8 µM | 193 | 5.97 µM | 2800 | > 100 µM | 13.1 µM | > 100 µM | 2830 | 62.4 µM | 916 | 71.1 µM | 390 | 14 µM | 10400 | 42.5 µM | 1620 | 25.5 µM
2 | COc1c(/C=C/C=O)cc2c(c1OC)OCO2 |  | > 100 |  | > 100 µM |  | 85.6 µM |  | > 100 µM |  | > 100 µM |  | > 100 µM |  | 44.8 µM |  | 57 µM |  | 3.15 µM |  | > 100 µM
3 | O=C(O)c1cc(=O)cc(C(=O)O)o1 | > 100000 | > 100 | > 100000 | > 100 µM | > 100000 | > 100 µM | > 100000 | > 100 µM | > 100 µM | > 100 µM | > 100000 | > 100 µM | > 100000 | > 100 µM | > 100000 | > 100 µM | > 100000 | > 100 µM | > 100000 | > 100 µM
4 | CC(C)(C)CC(C)(C)c1ccc(O)c(Cc2ccc(Cl)cc2Cl)c1 | 1650 | 3.01 | 1640 | 2.99 µM | 1590 | 2.93 µM | 1540 | 2.88 µM | 1.69 µM | 3.08 µM | 1680 | 3.08 µM | 1820 | 3.21 µM | 1700 | 3.07 µM | 1330 | 2.61 µM | 1530 | 2.89 µM
5 | COc1cc(/C=C2\CCC/C(=C\c3ccc(O)c(OC)c3)C2=O)ccc1O | 1420 |  | 1840 | 9.59 µM and 3.51 µM | 2540 | 43.5 µM and 10.6 µM | 3140 | 23.7 µM and 13.6 µM | 3.64 µM and 1.99 µM | 12.7 µM and 13.7 µM | 2300 | 26.6 µM and 5.67 µM | 2460 | 22.1 µM and 10.2 µM | 1600 | 5.32 µM and 4.06 µM | 1810 | 13.5 µM and 5.34 µM | 1840 | 24.8 µM and 4.63 µM
6 | O=c1cnnc(N/N=C/c2ccccc2O)[nH]1 | 3540 | > 100 | 442 | > 100 µM | 264 | > 23.8 µM | 2990 | > 100 µM | 8.03 µM | 87.3 µM | 1220 | > 100 µM | 6410 | > 100 µM | 1310 | 7.88 µM | 1810 | 23.3 µM | 1210 | > 100 µM
7 | CCCCCCn1c(SC)nc(COC(=O)NC)c1COC(=O)NC |  | 41.9 |  | 64.4 µM |  | 21.4 µM |  | 31.8 µM |  | 27.8 µM |  | 34.6 µM |  | 29.8 µM |  | 28.2 µM |  | 30.8 µM |  | 41.2 µM
